Measurements: patent US12193443B2, “Use of benzoxepin derivatives as a herbicide” (ECOLE POLYTECHNIQUE, priority 2019, dated 2025)

System: Arabidopsis thaliana seedlings
Assay: Test of the herbicidal activity on Arabidopsis thaliana seedlings grown hydroponically at the cotyledon stage
Type: in vivo
Design: key: A for Active in the case where the plant is killed, that is to say when the two cotyledons have lost all of their green coloration; “N” for Not active, in the case where no biological activity is observed
Settings: for Activity after 24 h: 24 h after application; for Activity after 96 h: 96 h after application
Method: The compounds were tested on Arabidopsis thaliana seedlings grown hydroponically at the cotyledon stage. Sterile seeds are germinated in the light in a culture plate, in the presence of 200 μL of nutrient medium. After five days of culture (time 0 of the trial), the nutrient medium is replaced with an equivalent volume (200 μL) of this same medium containing the compound to be tested at different concentrations. The manifestation of herbicidal activity is indicated by A for Active in the case where the plant is killed, that is to say when the two cotyledons have lost all of their green coloration, 24 h and 96 h after application of the product. The absence of herbicidal activity is indicated by “N” for Not active, in the case where no biological activity is observed.

Structure (SMILES)	Activity after 24 h (10 μg/mL in nutrient medium)	Activity after 96 h (10 μg/mL in nutrient medium)	Activity after 24 h (50 μg/mL in nutrient medium)	Activity after 96 h (50 μg/mL in nutrient medium)	Activity after 24 h (100 μg/mL in nutrient medium)	Activity after 96 h (100 μg/mL in nutrient medium)
CC1=CCc2c(O)cc(CCc3ccccc3)cc2OC1 [Compound A]	N	N	A	A	A	A
CC1=CCOc2cc(CCc3ccccc3)c(C(=O)O)c(O)c2C1 [Compound C]	A	A	A	A	A	A
COC(=O)c1c(CCc2ccccc2)cc2c(c1O)CC=C(C)CO2 [Compound D]	N	N	N	A	N	A
Oc1cccc2c1CC=CCO2 [Compound E, reference compound]	N	N	N	N	N	N
CC1=CCc2c(cc(CCc3ccccc3)c(C(=O)O)c2O)OC1 [Compound H]	A	A	A	A	A	A
